Several values for one entry are separate records, joined by “and”; a condition that tells them apart may be missing. Equal entries are not always repeated.
Key:
[1] = Adsorption onto Florisil and desorption into DMSO, quantified by RP-HPLC against a 10 mM control solution; format: physicochemical; settings: for Conc. (mM) of Compound in DMSO after desorption from Florisil / Conc. (mM) of Z-Trp-NH2 in DMSO after desorption from Florisil: control 10.00; for Conc. (mM) of Z-Trp-NH2 in DMSO after desorption from Florisil: nominal conc. 10 mM
Procedure: 1. 16.9 mg (50 μmol) of Z-Trp-NH2 in DMSO (0.5-5 ml) added to carrier (100 mg, 225 mg and 475 mg).
3. Evaporate off DMSO using centrifugal evaporator (70°/1 hr).
4. Mix resulting solid with spatula to ensure distribution as even as possible.
5. Weigh duplicate samples (to contain nominal 10 μmol Z-Trp-NH2) into vials.
6. Add DMSO to achieve 10^−2M conc. (nominal).
7. Dilute for HPLC analysis and compare with 10^−2M control solution of Z-Trp-NH2 similarly diluted.
Z-Trp-NH2 (169 mg) was dissolved in DMSO (50 ml) to give a 10 mM solution. Aliquots of the solution (5 ml, 50 μmol) were added to a 100 mg and a 225 mg sample of Florisil™ in 2-dram glass vials. The samples were vortexed for approximately one minute and the DMSO removed in vacuo by evaporation at 70° for 1 h in a centrifugal evaporator (GeneVac Atlas HT4™). After evaporation the samples were removed and checked visually. In each case dry solids were obtained in the form of free flowing powders virtually indistinguishable from the original Florisil™. The nominal loadings of the adsorbed samples were calculated as 207 and 427 μmol/g of Z-Trp-NH2.
Duplicate amounts (11.7 and 24.2 mg respectively) of the 427 and 207 μmol/g Z-Trp-NH2/Florisil™ samples were weighed into glass vials. DMSO (0.5 ml) was added to each vial and the vials were agitated gently for 15 min to give a nominal concentration of 10 mM of Z-Trp-NH2. Aliquots from each vial were diluted 100-fold with CH3CN and analysed by RP-HPLC monitoring by UV at […]. The peak areas obtained for the desorbed Z-Trp-NH2 DMSO solutions were compared with those obtained using a 10 mM control soln of Z-Trp-NH2 in DMSO similarly diluted.
Using a procedure analogous to that used for Z-Trp-NH2 the following results were obtained (Table 4 and FIG. 3)

[2] = Stability of Fmoc-Arg in DMSO and when adsorbed onto Florisil (HPLC); format: physicochemical
[3] = ratio of compound to Florisil 200.0 μmol/g
[4] = ratio of compound to Florisil 200.1 μmol/g
[5] = ratio of compound to Florisil 397.5 μmol/g
[6] = ratio of compound to Florisil 400.6 μmol/g

Row | Compound | Overall adsorption/desorption result with Florisil ([1]; comparable to those obtained with Z-Trp-NH2) | Conc. (mM) of Compound in DMSO after desorption from Florisil [1, 3] [mM] | Conc. (mM) of Compound in DMSO after desorption from Florisil [1, 4] [mM] | Conc. (mM) of Compound in DMSO after desorption from Florisil [1, 5] [mM] | Conc. (mM) of Compound in DMSO after desorption from Florisil [1, 6] [mM] | Decomposition in DMSO ([2]; 10^-2 M in DMSO, after 24 hours at ambient temperature) | Stability when adsorbed onto Florisil ([2]; adsorbed onto Florisil, some decomposition during adsorption/desorption when DMSO is present) | Detection by HPLC after centrifugal evaporation and dissolution into DMSO ([2]; control experiment, no Florisil added) | Conc. (mM) of Z-Trp-NH2 in DMSO after desorption from Florisil ([1]; ratio of Z-Trp-NH2 to Florisil 200 μmol/g) | Conc. (mM) of Z-Trp-NH2 in DMSO after desorption from Florisil ([1]; ratio of Z-Trp-NH2 to Florisil 400 μmol/g)
1 | Boc-Naphthylalanine [Boc-Nal] | – | 9.10 | 9.06 | 9.64 | 9.64 | – | – | – | – | –
2 | Boc-Pyridylalanine [Boc-Pal] | – | 9.75 | 14.20 | 11.06 | 10.63 | – | – | – | – | –

More lines, now with the values ahead:

Row | Overall adsorption/desorption result with Florisil ([1]; comparable to those obtained with Z-Trp-NH2) | Conc. (mM) of Compound in DMSO after desorption from Florisil [1, 3] [mM] | Conc. (mM) of Compound in DMSO after desorption from Florisil [1, 4] [mM] | Conc. (mM) of Compound in DMSO after desorption from Florisil [1, 5] [mM] | Conc. (mM) of Compound in DMSO after desorption from Florisil [1, 6] [mM] | Decomposition in DMSO ([2]; 10^-2 M in DMSO, after 24 hours at ambient temperature) | Stability when adsorbed onto Florisil ([2]; adsorbed onto Florisil, some decomposition during adsorption/desorption when DMSO is present) | Detection by HPLC after centrifugal evaporation and dissolution into DMSO ([2]; control experiment, no Florisil added) | Conc. (mM) of Z-Trp-NH2 in DMSO after desorption from Florisil ([1]; ratio of Z-Trp-NH2 to Florisil 200 μmol/g) | Conc. (mM) of Z-Trp-NH2 in DMSO after desorption from Florisil ([1]; ratio of Z-Trp-NH2 to Florisil 400 μmol/g) | Compound
3 | apparent low release | 7.70 | 7.65 | 5.11 | 5.53 | decomposes completely | stable | not possible to detect any Fmoc-Arg | – | – | N=C(N)NCCC[C@H](NC(=O)OCC1c2ccccc2-c2ccccc21)C(=O)O [Fmoc-Arg, Fmoc-Arginine]
4 | – | 10.04 | 10.31 | 11.93 | 10.51 | – | – | – | – | – | Cl.NC(=O)[C@@H](N)Cc1c[nH]c2ccccc12 [Trp-NH2.HCl, Tryptophan amide hydrochloride]
5 | – | – | – | – | – | – | – | – | 9.21 mM and 9.79 mM | 10.26 mM and 10.09 mM | NC(=O)[C@H](Cc1c[nH]c2ccccc12)NC(=O)OCc1ccccc1 [Z-Trp-NH2]

From US6626982B1, “Compound storage” (AstraZeneca AB, priority 1998, dated 2003)
